PMC8406319, “The dCache Chemoreceptor TlpA of Helicobacter pylori Binds Multiple Attractant and Antagonistic Ligands via Distinct Sites” (mBio, 2021)
Structures can show the parent of a compound that is named as a salt.

Tests used:
H. pylori PMSS1 ΔtlpA = test: Temporal chemotaxis assay (direction changes), ΔtlpA mutant; type: cell-based, Helicobacter pylori; settings: ligands 0.1-10 mM, controls 50 μM dipyridyl, 10 mM HCl
Experimental: (§1) Cultures of H. pylori PMSS1 WT and ΔtlpA strains were grown overnight, back-diluted, and then incubated until an OD600 of 0.12 to 0.15 was reached. Cultures were treated with water (Mock) or various concentrations of compounds, as indicated. For panels C and E, the pH of cysteine, thiamine, malic acid, and α-ketoglutarate stocks was adjusted using NaOH to match the pH of the water used for the untreated control. The cells were immediately filmed, and direction changes were counted over a 3-s swimming period in at least 100 cells per treatment from 3 biological replicates. Data are normalized to the values for the untreated control for each strain, as described in Materials and Methods. Error bars represent the standard errors of the means. *, P < 0.05; **, P < 0.01; ***, P < 0.001 (comparisons to the untreated control per strain using two-way ANOVA with Dunnett’s multiple-comparison test).
To determine if chemoattractant responses toward arginine, fumarate, and cysteine were TlpA dependent, the same tracking experiments were repeated with a mutant lacking tlpA (ΔtlpA).
(§2) Swimming behavior assays were done with H. pylori PMSS1 strains grown in BB10 as described above. Cultures grown overnight were diluted to an optical density at 600 nm (OD600) of 0.1 in fresh BB10 and then incubated with shaking as described above until an OD600 of 0.12 to 0.15 was reached. […] The number of direction changes in a bacterial swimming trajectory was enumerated over a 3-s interval to determine whether each putative ligand is sensed as an attractant or repellent or elicits no response ([20], [25][–][30]). […] Each control is sensed by chemoreceptors other than TlpA ([24], [25], [29], [31]). The pH of BB10 upon treatment was independently assessed using a Denver Instruments pH meter. Prior to realizing that chemotactic responses may be due to medium acidification, we resuspended all ligands in pure water. Therefore, to be able to compare the results to those of previous experiments, we continued resuspending acidified ligands in pure water and then adjusting the pH of the resuspended ligand using NaOH. Cultures were filmed immediately after ligand addition at a ×400 magnification using a Hamamatsu C4742-95 digital camera with μManager software (version 1.4.22), mounted on a Nikon Eclipse E600 phase-contrast microscope. For the competition chemotaxis assay, cultures of H. pylori and ligands were prepared as described above. However, 1 min after the addition of a nonchemoactive ligand at a final concentration of 10 mM, a chemoactive ligand was added at a final concentration of 10 mM, and the cultures were then filmed as described above. Videos were relabeled to blind the observer to the strain identity. For each sample, >100 3-s-long bacterial tracks from three independent cultures were analyzed manually to identify stops followed by direction changes. Data for all biological replicates under each condition were combined, and the average number of direction changes in 3 s and the standard error of the mean were calculated. For each strain, data were normalized to the values for the untreated control under each experimental condition. Statistical analysis of the data for treated versus untreated samples was performed using two-way analysis of variance (ANOVA) and Dunnett’s multiple-comparison test.

H. pylori PMSS1 WT = test: Temporal chemotaxis assay (live-cell video microscopy, direction changes), WT; type: cell-based, Helicobacter pylori
Experimental: H. pylori chemotactic responses toward the seven putative TlpA-dependent ligands were examined by a live-cell video microscopy assay that measures the temporal chemotaxis response to test ligands. […] Acidic conditions are sensed by chemoreceptors other than TlpA ([24], [29], [31]) and potentially mask chemotactic responses to the ligands being tested.
as §1, with “For panels C and E, the pH of cysteine, thiamine, malic acid, and α-ketoglutarate stocks was adjusted using NaOH to match the pH of the water used for the untreated control.” left out
as §2, with “Prior to realizing that chemotactic responses may be due to medium acidification, we resuspended all ligands in pure water.” left out

TlpALBD = test: Small-molecule ligand binding array; parameters: species or system Helicobacter pylori SS1; settings: ligand binding array screen; n = 3; note: key: + for positive binding; +/− for intermediate binding; − for no binding
Experimental: Small-molecule arrays were prepared and performed as previously described ([57]). Briefly, 1 μg of purified TlpALBD in phosphate-buffered saline (PBS) (pH 7.2) was incubated with a molar concentration ratio (4:2:1) of anti-His antibody (Cell Signaling), followed by incubation with a secondary antibody (Thermo Scientific) for signal amplification. The protein-antibody mix was added to an Arrayit Superepoxy III glass substrate array blocked with PBS (pH 7.2) with 1% bovine serum albumin. […] Unbound protein was washed away with PBS with 0.05% Tween. […] Three biological replicates were performed, with a total of 12 data points for each glycan tested. Binding was classified as positive for a ligand if the relative fluorescence unit value was >1-fold above the mean background (defined as the average background of negative-control spots plus 3 standard deviations [SD]) and was statistically significant (P < 0.005 by Student’s t test). Small-molecule array slide preparation and analysis were done according to MIRAGE guidelines ([58]) (outlined in Table S5).
Classification Guidelines
1. Sample: Glycan Binding Sample
Origin: Helico bact er pyl ori SS1; produce d as a reco mbinant His -tagged protein in E.
The preparation of TlpA is exp lained in the Materials and Methods se ct ion: TlpA co nst ruct desi gn and protein purifica tion.
Sample Sample is a His Tagged protein co ntaining only the periplasm ic rece ptor domain, amino […]
Please see Materials and Methods: Li ga nd bi ndi ng arra y.
Proteins were co mplexe d with mouse anti-his antibody, with se co ndary and tertiary Alexa Fluor555 antibodies (rabbit anti-mouse , goat anti-rabbit) at a molar ratio of 4:2:1.
The protein/antibody co mplex was incu bated on ice for 10 mins prior to placi ng on the Assa y array. Arrays were performed with 1 µg of co mplexe d protein incu bated on the array for protoco l 20 min. Arrays were then wash ed 3 times in Array PBS (PBS + 2 mM MgCl2 + 2 mM CaCl2) then dried by ce ntrifugation for 3 min at 300 x g. Sca nning was performed usi ng an Innopsys InnoSca n 1100AL and analyze d usi ng Mapix (Innopsy s). Yes/ no binding was determined by si x posi tive replica te sp ots in three replica te exp eriments. […]
2.2 Small molecule Library […]
descr iption for Compounds printed in the amino aci d/small molecu le array for this st udy are list ed in […]
5.2 Small molecule array with “Map”
The array co nsi sts of triplica te su b-arrays of amino aci ds and sm all moleucl es (24 rows x 10 co lumns) with 400μm sp ot sp aci ng (ce ntre to ce ntre) with a minimum sp ot si ze of 100μm . Each sa mple is printed si x times, with each of the 3 su b-arrays incl uding at least Array layo ut si x negative co ntrol sa mples (print so lution only) and a posi tive co ntrol sa mples […]
Posi tive co ntrols provi de proof of su cce ssf ul immobiliza tion of the amine reagents and provi des for orientation for analysi s.
Sample Arrays are quality co ntrolled by a range of measu res. 1. Each printed array is post print identifica tion sca nned to co nfirm deposi tion of the sa mples on the array su rface prior to neutraliza tion and quality of the remaining sl ide su rface . 2. Post neutralize d sl ides are sca nned again to monitor co ntrol for remaining autofluoresce nce .
1. 6. Detector and Data Processing
Sca nning reso lution: […]
Sca n powers: Low lase r power. […]
analysi s Innopsys MAPIX.

TlpALBD point mutants = test: SPR binding affinity of TlpALBD point mutants relative to WT; parameters: species or system Helicobacter pylori SS1; settings: vs WT
Description: The periplasmic portion of TlpA (TlpALBD), amino acids 28 to 299, from Helicobacter pylori SS1 was cloned into a pBH4 expression vector (pBH4_TlpALBD) to generate an N-terminal 6×His-tagged construct, with a tobacco etch virus (TEV) protease site, under the control of isopropyl-β-D-thiogalactopyranoside (IPTG) ([19]). […] TlpALBD and all point mutants were purified as described previously by Sweeney et al. ([19]).
Purified TlpALBD was immobilized on a CM5 series S sensor chip, and binding affinities were tested using a Biacore S200 instrument (GE Healthcare) as described previously ([39], [57], [59]). Briefly, proteins were captured using an amine-coupling kit (GE Healthcare), in which the carboxylmethyl dextran matrix of the sensor chip was activated by the injection of a mixture of 0.2 M 1-ethyl-3-[(3-dimethylamino)propyl]-carbodiimide (EDC) and 0.05 M N-hydroxysuccinimide (NHS), followed by the neutralization of the remaining unreacted NHS ester groups by the injection of 1 M ethanolamine-HCl (pH 8.0). Purified TlpALBD was diluted in 10 mM sodium acetate buffer (pH 4.5) at a concentration of 100 μg/ml for immobilization to the chip. A total of 8,400 response units (RU) of TlpALBD were captured on flow cell 2. […] The data sets were analyzed using Biacore S200 evaluation software 2.0.2; sensorgrams were double-reference subtracted.

Compound	Chemotactic response of ΔtlpA mutant (H. pylori PMSS1 ΔtlpA)	Chemotactic response (direction changes vs mock) (H. pylori PMSS1 WT; WT, 0.1, 1, 10 mM tested, acidic ligand stocks pH neutralized with NaOH, 10 mM most significant)	Chemotactic response, ligand stock pH not adjusted (H. pylori PMSS1 WT; acidic in solution, unadjusted pH)	Array result (TlpALBD)	Change in binding affinity, any point mutant (TlpALBD point mutants)
Cl [HCl, reference compound]	repellent responses				
c1ccc(-c2ccccn2)nc1 [dipyridyl, 2,2′-dipyridyl, reference compound]	significant attractant				
O=C(O)CCC(=O)C(=O)O [α-Ketoglutarate, α-ketoglutaric acid]		no significant direction changes	significant TlpA-independent chemorepellent responses	+	no appreciable change
